The record followed here is patent publication US20200113181A1, “HERBICIDAL COMPOUNDS” (SYNGENTA PARTICIPATIONS AG, priority 2016, published 2020).

Assay type in all cases: in vivo
The subject of one experiment is Setaria faberi (SETFA). The experiment can be described thus: Glasshouse herbicide test, pre- and post-emergence, Setaria faberi. To be noted: 250 g/h, evaluated after 13 days; for SETFA POST, percentage damage caused to the plant (five point scale): post-emergence; for SETFA PRE, percentage damage caused to the plant (five point scale): pre-emergence. On the procedure: (§1) Seeds of a variety of test species are sown in standard soil in pots (Lolium perenne (LOLPE), Setaria faberi (SETFA), Alopecurus myosuroides (ALOMY), Echinochloa crus-galli (ECHCG), Avena fatua (AVEFA)). After cultivation for one day (pre-emergence) or after 8 days cultivation (post-emergence) under controlled conditions in a glasshouse (at 24/16° C., day/night; 14 hours light; 65% humidity), the plants are sprayed with an aqueous spray solution derived from the formulation of the technical active ingredient in acetone/water (50:50) solution containing 0.5% Tween 20 (polyoxyethelyene sorbitan monolaurate, CAS RN 9005-64-5). Compounds are applied at […]. The test plants are then grown in a glasshouse under controlled conditions in a glasshouse (at 24/16° C., day/night; 14 hours light; 65% humidity) and watered twice daily. After 13 days for pre and post-emergence, the test is evaluated for the percentage damage caused to the plant. The biological activities are shown in the following table on a five point scale (5=80-100%; 4=60-79%; 3=40-59%; 2=20-39%; 1=0-19%).

For experiment [1], the system named is Alopecurus myosuroides (ALOMY). The experiment can be described thus: Glasshouse herbicide test, pre- and post-emergence, Alopecurus myosuroides. As to conditions: 250 g/h, evaluated after 13 days; for ALOMY POST, percentage damage caused to the plant (five point scale): post-emergence; for ALOMY PRE, percentage damage caused to the plant (five point scale): pre-emergence. The procedure: as §1

A further experiment relates to Avena fatua (AVEFA). The experiment can be described thus: Glasshouse herbicide test, pre- and post-emergence, Avena fatua. As to conditions: 250 g/h, evaluated after 13 days; for AVEFA POST, percentage damage caused to the plant (five point scale): post-emergence; for AVEFA PRE, percentage damage caused to the plant (five point scale): pre-emergence. The procedure: as §1

Another experiment relates to Lolium perenne (LOLPE). The experiment can be described thus: Glasshouse herbicide test, pre- and post-emergence, Lolium perenne. As to conditions: 250 g/h, evaluated after 13 days; for LOLPE POST, percentage damage caused to the plant (five point scale): post-emergence; for LOLPE PRE, percentage damage caused to the plant (five point scale): pre-emergence. On the procedure: as §1

The subject of experiment [2] is Echinochloa crus-galli (ECHCG). The experiment can be described thus: Glasshouse herbicide test, pre- and post-emergence, Echinochloa crus-galli. As to conditions: 250 g/h, evaluated after 13 days; for ECHCG POST, percentage damage caused to the plant (five point scale): post-emergence; for ECHCG PRE, percentage damage caused to the plant (five point scale): pre-emergence. On the procedure:
as §1

Consider `CC#Cc1ccc(C2C(=O)[C@@H]3[C@@H]4O[C@@H](C[C@H]4CC)[C@@H]3C2=O)c(OC)c1` (stereo partly drawn) [Compound 1.23], for which, in the experiment with Setaria faberi (SETFA), the “SETFA POST, percentage damage caused to the plant (five point scale)” value (shortened to “SETFA POST, percentage damage caused”) is given as 5 (5=80-100%) and the “SETFA PRE, percentage damage caused to the plant (five point scale)” value (“SETFA PRE, percentage damage caused” for short) was 5 (5=80-100%). In addition, in experiment [1], the “ALOMY POST, percentage damage caused to the plant (five point scale)” value (shortened to “ALOMY POST, percentage damage caused”) is recorded as 5 (5=80-100%) and the “ALOMY PRE, percentage damage caused to the plant (five point scale)” value (from here on “ALOMY PRE, percentage damage caused”) was 5 (5=80-100%). Moreover, in the experiment with Avena fatua (AVEFA), the “AVEFA POST, percentage damage caused to the plant (five point scale)” value (“AVEFA POST, percentage damage caused” below) was 5 (5=80-100%) and the “AVEFA PRE, percentage damage caused to the plant (five point scale)” value (shortened to “AVEFA PRE, percentage damage caused”) is listed as 5 (5=80-100%). Also, in the experiment on Lolium perenne (LOLPE), the “LOLPE POST, percentage damage caused to the plant (five point scale)” value (“LOLPE POST, percentage damage caused” below) was 5 (5=80-100%) and the “LOLPE PRE, percentage damage caused to the plant (five point scale)” value (shortened to “LOLPE PRE, percentage damage caused”) is recorded as 5 (5=80-100%). For the same compound, in experiment [2], the “ECHCG POST, percentage damage caused to the plant (five point scale)” value (“ECHCG POST, percentage damage caused” below) is recorded as 5 (5=80-100%) and the “ECHCG PRE, percentage damage caused to the plant (five point scale)” value (shortened to “ECHCG PRE, percentage damage caused”) is 5 (5=80-100%).

As to `CC#Cc1ccc(C2C(=O)[C@@H]3[C@H](C2=O)[C@@]2(C)CC[C@]3(C)O2)c(OC)c1` (stereo partly drawn) [Compound 1.11], in the experiment on Setaria faberi (SETFA), the “SETFA POST, percentage damage caused” value was 5 (5=80-100%) and the “SETFA PRE, percentage damage caused” value is given as 3 (3=40-59%). In experiment [1], the “ALOMY POST, percentage damage caused” value is 5 (5=80-100%) and the “ALOMY PRE, percentage damage caused” value is 5 (5=80-100%). In the experiment on Avena fatua (AVEFA), the “AVEFA POST, percentage damage caused” value is listed as 5 (5=80-100%) and the “AVEFA PRE, percentage damage caused” value was 3 (3=40-59%). For the same compound, in the experiment on Lolium perenne (LOLPE), the “LOLPE POST, percentage damage caused” value was 5 (5=80-100%) and the “LOLPE PRE, percentage damage caused” value was 4 (4=60-79%). For the same compound, in experiment [2], the “ECHCG POST, percentage damage caused” value is given as 5 (5=80-100%) and the “ECHCG PRE, percentage damage caused” value was 3 (3=40-59%).

As to `CC#Cc1ccc(C2C(=O)[C@@H]3[C@@H]4O[C@@H](C[C@H]4/C=N/OC)[C@@H]3C2=O)c(OC)c1` (mixture of isomers) [Compound 1.17], in the experiment on Setaria faberi (SETFA), the “SETFA POST, percentage damage caused” value was 5 (5=80-100%) and the “SETFA PRE, percentage damage caused” value is given as 5 (5=80-100%). In experiment [1], the “ALOMY POST, percentage damage caused” value is 5 (5=80-100%) and the “ALOMY PRE, percentage damage caused” value is on record as 5 (5=80-100%). Also, in the experiment with Avena fatua (AVEFA), the “AVEFA POST, percentage damage caused” value is given as 5 (5=80-100%) and the “AVEFA PRE, percentage damage caused” value is recorded as 5 (5=80-100%). In the experiment on Lolium perenne (LOLPE), the “LOLPE POST, percentage damage caused” value is on record as 5 (5=80-100%) and the “LOLPE PRE, percentage damage caused” value was 5 (5=80-100%). In addition, in experiment [2], the “ECHCG POST, percentage damage caused” value is 5 (5=80-100%) and the “ECHCG PRE, percentage damage caused” value is reported as 5 (5=80-100%).

For `CC#Cc1ccc(C2=C(OC(=O)OC)[C@@H]3[C@H](C2=O)[C@@H]2O[C@H]3C[C@@H]2COC)c(OC)c1` (racemic) [Compound 1.28], in the experiment with Setaria faberi (SETFA), the “SETFA POST, percentage damage caused” value is listed as 5 (5=80-100%) and the “SETFA PRE, percentage damage caused” value is listed as 5 (5=80-100%). In experiment [1], the “ALOMY POST, percentage damage caused” value is 5 (5=80-100%) and the “ALOMY PRE, percentage damage caused” value is listed as 5 (5=80-100%). Further, in the experiment on Avena fatua (AVEFA), the “AVEFA POST, percentage damage caused” value is 5 (5=80-100%) and the “AVEFA PRE, percentage damage caused” value is given as 5 (5=80-100%). Moreover, in the experiment on Lolium perenne (LOLPE), the “LOLPE POST, percentage damage caused” value was 5 (5=80-100%) and the “LOLPE PRE, percentage damage caused” value is reported as 5 (5=80-100%). Besides, in experiment [2], the “ECHCG POST, percentage damage caused” value is reported as 5 (5=80-100%) and the “ECHCG PRE, percentage damage caused” value is 5 (5=80-100%).

Regarding `CC#Cc1ccc(C2C(=O)[C@H]3[C@@H]4CC[C@@](COC)(O4)[C@H]3C2=O)c(OC)c1` (mixture of isomers) [Compound 1.12], in the experiment with Setaria faberi (SETFA), the “SETFA POST, percentage damage caused” value is 5 (5=80-100%) and the “SETFA PRE, percentage damage caused” value is 5 (5=80-100%). Further, in experiment [1], the “ALOMY POST, percentage damage caused” value is recorded as 5 (5=80-100%) and the “ALOMY PRE, percentage damage caused” value is reported as 5 (5=80-100%). Further, in the experiment on Avena fatua (AVEFA), the “AVEFA POST, percentage damage caused” value is recorded as 5 (5=80-100%) and the “AVEFA PRE, percentage damage caused” value is reported as 5 (5=80-100%). In the experiment with Lolium perenne (LOLPE), the “LOLPE POST, percentage damage caused” value is 5 (5=80-100%) and the “LOLPE PRE, percentage damage caused” value was 5 (5=80-100%). Further, in experiment [2], the “ECHCG POST, percentage damage caused” value is recorded as 5 (5=80-100%) and the “ECHCG PRE, percentage damage caused” value is 5 (5=80-100%).

`CC#Cc1ccc(C2C(=O)[C@@H]3[C@@H]4O[C@@H](C[C@@H]4OC)[C@@H]3C2=O)c(OC)c1` (mixture of isomers) [Compound 1.25]: in the experiment with Setaria faberi (SETFA), the “SETFA POST, percentage damage caused” value is reported as 5 (5=80-100%) and the “SETFA PRE, percentage damage caused” value is recorded as 5 (5=80-100%). Also, in experiment [1], the “ALOMY POST, percentage damage caused” value was 5 (5=80-100%) and the “ALOMY PRE, percentage damage caused” value is listed as 5 (5=80-100%). In the experiment with Avena fatua (AVEFA), the “AVEFA POST, percentage damage caused” value is 5 (5=80-100%) and the “AVEFA PRE, percentage damage caused” value was 5 (5=80-100%). In the experiment with Lolium perenne (LOLPE), the “LOLPE POST, percentage damage caused” value was 5 (5=80-100%) and the “LOLPE PRE, percentage damage caused” value is on record as 5 (5=80-100%). In experiment [2], the “ECHCG POST, percentage damage caused” value is 5 (5=80-100%) and the “ECHCG PRE, percentage damage caused” value was 5 (5=80-100%).

Turning to `CC#Cc1ccc(C2C(=O)[C@@H]3[C@H](C2=O)[C@H]2C=C(C)[C@@H]3O2)c(OC)c1` (mixture of isomers) [Compound 1.16], in the experiment on Setaria faberi (SETFA), the “SETFA POST, percentage damage caused” value is 5 (5=80-100%) and the “SETFA PRE, percentage damage caused” value is on record as 5 (5=80-100%). For the same compound, in experiment [1], the “ALOMY POST, percentage damage caused” value was 5 (5=80-100%) and the “ALOMY PRE, percentage damage caused” value is listed as 5 (5=80-100%). For the same compound, in the experiment with Avena fatua (AVEFA), the “AVEFA POST, percentage damage caused” value is 5 (5=80-100%) and the “AVEFA PRE, percentage damage caused” value is 5 (5=80-100%). For the same compound, in the experiment with Lolium perenne (LOLPE), the “LOLPE POST, percentage damage caused” value was 5 (5=80-100%) and the “LOLPE PRE, percentage damage caused” value is on record as 5 (5=80-100%). Also, in experiment [2], the “ECHCG POST, percentage damage caused” value is listed as 5 (5=80-100%) and the “ECHCG PRE, percentage damage caused” value is on record as 5 (5=80-100%).

With `CC#Cc1ccc(C2=C(OC(=O)C(C)C)[C@@H]3[C@H](C2=O)[C@H]2CC[C@@H]3O2)c(OC)c1` (racemic) [Compound 1.1, isobutyric acid 4-(2-methoxy-4-prop-1-ynyl-phenyl)-5-oxo-10-oxa-tricyclo[5.2.1.0^2,6]dec-3-en-3-yl ester], in the experiment with Setaria faberi (SETFA), the “SETFA POST, percentage damage caused” value is reported as 5 (5=80-100%) and the “SETFA PRE, percentage damage caused” value was 5 (5=80-100%). Besides, in the experiment on Avena fatua (AVEFA), the “AVEFA POST, percentage damage caused” value is listed as 5 (5=80-100%) and the “AVEFA PRE, percentage damage caused” value is on record as 5 (5=80-100%). In the experiment on Lolium perenne (LOLPE), the “LOLPE POST, percentage damage caused” value is reported as 5 (5=80-100%) and the “LOLPE PRE, percentage damage caused” value is given as 5 (5=80-100%). Moreover, in experiment [2], the “ECHCG POST, percentage damage caused” value is 5 (5=80-100%) and the “ECHCG PRE, percentage damage caused” value is 5 (5=80-100%).
